Broadly, the IC50 is the concentration at which inhibition is half-maximal.

One experiment deals with T1, CDK4/Cyclin D1 (Homo sapiens, UniProt P11802).
T1 construct: purchased ProQinase; host or cells: insect cell
As to the kind of experiment: CDK4/CyclinD1 enzymatic activity assay (TR-FRET). The experiment is classed as biochemical. Particulars: ATP 2 mM final, read-out: CDK4_D1 IC50. The gist of the method:
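Insect-cell-expressed CDK4/Cyclin D1 (1 nM) phosphorylated ULight-4E-BP1 peptide (100 nM) at 2 mM ATP in HEPES pH 7.4 buffer after 20 min compound preincubation. Reaction started with 10 mM MgCl2, ran 45 min at 37 °C, then EDTA quench and Eu-anti-phospho-4E-BP1 TR-FRET detection. IC50 from 9-point 3-fold dilutions, 4-parameter fit.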

The test system of the next experiment is OVCAR3 p-RB. As to the kind of experiment: pRB ICW assay in OVCAR3 cells. The class given is cell-based. Particulars: Homo sapiens, OVCAR-3, incubated with compound for 2 hours. The gist of the method:
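OVCAR3 cells were treated 2 h at 37 °C with a 9-point half-log compound series, in duplicate, with 10 μM reference compound as maximum inhibition. Cells were then fixed, permeabilized and stained with anti-phospho-RB plus DRAQ5. In-cell western intensities were read at 700/800 nm on Odyssey CLx.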

Another experiment concerns the target CDK2/Cyclin E2 (Homo sapiens, UniProt P24941). As to the kind of experiment: CDK2/CyclinE2 enzymatic activity assay (TR-FRET). The experiment is classed as biochemical. Particulars: ATP 1 mM final, read-out: CDK2_E1 IC50. The gist of the method: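 Insect-cell-expressed CDK2/Cyclin E2 (1 nM), ULight-4E-BP1 (50 nM) and ATP (1 mM) in HEPES pH 7.4 buffer were preincubated 20 min at RT with compound (9-dose, 3-fold), started with 10 mM MgCl2 and run 45 min at 37 °C. EDTA/Eu-anti-P-4E-BP1 stop, 60 min TR-FRET detection; IC50 from 4-parameter Hill fit.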
A general note: TR-FRET usually uses a lanthanide donor and a delayed reading to cut background.

T1 sequence (P11802 whole entry): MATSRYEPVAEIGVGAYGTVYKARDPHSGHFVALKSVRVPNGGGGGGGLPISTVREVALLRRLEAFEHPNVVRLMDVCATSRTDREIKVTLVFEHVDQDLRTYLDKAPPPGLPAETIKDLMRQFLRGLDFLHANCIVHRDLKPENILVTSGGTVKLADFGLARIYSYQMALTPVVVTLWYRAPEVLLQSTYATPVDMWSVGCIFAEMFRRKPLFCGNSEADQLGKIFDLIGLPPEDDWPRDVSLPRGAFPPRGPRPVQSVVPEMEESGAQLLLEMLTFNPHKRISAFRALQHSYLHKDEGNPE
T1 sequence (P24385 whole entry partner): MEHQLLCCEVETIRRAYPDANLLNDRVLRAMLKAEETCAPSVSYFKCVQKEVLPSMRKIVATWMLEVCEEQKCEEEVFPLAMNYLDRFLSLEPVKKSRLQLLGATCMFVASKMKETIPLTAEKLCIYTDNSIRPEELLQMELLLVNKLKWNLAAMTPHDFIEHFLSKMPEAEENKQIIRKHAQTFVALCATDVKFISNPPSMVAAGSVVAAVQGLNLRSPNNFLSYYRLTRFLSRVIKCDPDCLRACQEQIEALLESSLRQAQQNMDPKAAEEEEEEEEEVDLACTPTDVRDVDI

For `CC(C)Nc1ncc(-c2nc(NC3CCN(S(C)(=O)=O)CC3)ncc2C(F)(F)F)s1` [Example 41, 5-[2-[(1-Methylsulfonylpiperidin-4-yl)amino]-5-(trifluoromethyl)pyrimidin-4-yl]-N-propan-2-yl-1,3-thiazol-2-amine], the IC50 on CDK4/Cyclin D1 was at most 100 nM; in the experiment with OVCAR3 p-RB, 100 to 1000 nM; at CDK2/Cyclin E2, at most 100 nM.
With `CS(=O)(=O)N1CCC(Nc2ncc(C(F)(F)F)c(-c3cnc(C(F)F)s3)n2)CC1` [Example 42, 4-[2-(Difluoromethyl)-1,3-thiazol-5-yl]-N-(1-methylsulfonylpiperidin-4-yl)-5-(trifluoromethyl)pyrimidin-2-amine], the values for the IC50 at CDK4/Cyclin D1, in the experiment on OVCAR3 p-RB and on CDK2/Cyclin E2 were 100 to 1000 nM, above 1000 nM and at most 100 nM, respectively.
Taken in the same sequence, the figures for `CS(=O)(=O)N1CCC(Nc2ncc(C(F)(F)F)c(-c3cnc(O[C@@H]4CCC[C@H]4O)s3)n2)CC1` [Example 44, (1R,2R)-2-((5-(2-((1-(Methylsulfonyl)piperidin-4-yl)amino)-5-(trifluoromethyl)pyrimidin-4-yl)thiazol-2-yl)oxy)cyclopentanol] were at most 100 nM, 100 to 1000 nM and at most 100 nM.
With `CCS(=O)(=O)N1CCC(Nc2ncc(C(F)(F)F)c(-c3cnc(C)s3)n2)CC1` [Example 45, N-(1-(Ethylsulfonyl)piperidin-4-yl)-4-(2-methylthiazol-5-yl)-5-(trifluoromethyl)pyrimidin-2-amine], the IC50 at CDK4/Cyclin D1 was 100 to 1000 nM; in the experiment with OVCAR3 p-RB, 100 to 1000 nM; on CDK2/Cyclin E2, at most 100 nM.
As for `Cc1ncc(-c2nc(NC3CCN(S(=O)(=O)C4CC4)CC3)ncc2C(F)(F)F)s1` [Example 46, N-(1-(Cyclopropylsulfonyl)piperidin-4-yl)-4-(2-methylthiazol-5-yl)-5-(trifluoromethyl)pyrimidin-2-amine], the concentration for half-maximal inhibition (IC50) is 100 to 1000 nM on CDK4/Cyclin D1, 100 to 1000 nM in the experiment on OVCAR3 p-RB and at most 100 nM at CDK2/Cyclin E2.
For `Cc1ncc(-c2nc(NC3CCN(S(=O)(=O)N(C)C)CC3)ncc2C(F)(F)F)s1` [Example 47, N,N-Dimethyl-4-((4-(2-methylthiazol-5-yl)-5-(trifluoromethyl)pyrimidin-2-yl)amino)piperidine-1-sulfonamide], the figures for the IC50 on CDK4/Cyclin D1, in the experiment on OVCAR3 p-RB and at CDK2/Cyclin E2 were 100 to 1000 nM, above 1000 nM and at most 100 nM, respectively.
In the same order, the values of `CCNS(=O)(=O)N1CCC(Nc2ncc(C(F)(F)F)c(-c3cnc(C)s3)n2)CC1` [Example 48, N-Ethyl-4-((4-(2-methylthiazol-5-yl)-5-(trifluoromethyl)pyrimidin-2-yl)amino)piperidine-1-sulfonamide] are 100 to 1000 nM, above 1000 nM and at most 100 nM.
Taken in the same sequence, the figures for `CCOc1ncc(-c2nc(NC3CCN(S(C)(=O)=O)CC3)ncc2C(F)(F)F)s1` [Example 52, 4-(2-Ethoxy-1,3-thiazol-5-yl)-N-(1-methylsulfonylpiperidin-4-yl)-5-(trifluoromethyl)pyrimidin-2-amine] were at most 100 nM, 100 to 1000 nM and at most 100 nM.
For the compound `COC(=O)Nc1ncc(-c2nc(NC3CCN(S(C)(=O)=O)CC3)ncc2C(F)(F)F)s1` [Example 54, Methyl N-[5-[2-[(1-methylsulfonylpiperidin-4-yl)amino]-5-(trifluoromethyl)pyrimidin-4-yl]-1,3-thiazol-2-yl]carbamate], the IC50 is 100 to 1000 nM at CDK4/Cyclin D1, above 1000 nM with OVCAR3 p-RB and at most 100 nM at CDK2/Cyclin E2.
In the same order, the values of `CS(=O)(=O)N1CCC(Nc2ncc(C(F)(F)F)c(-c3cnc(NC(=O)C(F)(F)F)s3)n2)CC1` [Example 57, 2,2,2-Trifluoro-N-[5-[2-[(1-methylsulfonylpiperidin-4-yl)amino]-5-(trifluoromethyl)pyrimidin-4-yl]-1,3-thiazol-2-yl]acetamide] are at most 100 nM, above 1000 nM and at most 100 nM.
In the case of `Cc1ncc(-c2nc(NC3CCN(S(=O)(=O)c4cn(C)cn4)CC3)ncc2C(F)(F)F)s1` [Example 58, N-[1-(1-Methylimidazol-4-yl)sulfonylpiperidin-4-yl]-4-(2-methyl-1,3-thiazol-5-yl)-5-(trifluoromethyl)pyrimidin-2-amine], the IC50 on CDK4/Cyclin D1 was at most 100 nM; in the experiment with OVCAR3 p-RB, 100 to 1000 nM; on CDK2/Cyclin E2, at most 100 nM.
In the case of `Cc1ncc(-c2nc(NC3CCN(S(=O)(=O)c4ccn(C)n4)CC3)ncc2C(F)(F)F)s1` [Example 59, N-[1-(1-Methylpyrazol-3-yl)sulfonylpiperidin-4-yl]-4-(2-methyl-1,3-thiazol-5-yl)-5-(trifluoromethyl)pyrimidin-2-amine], the IC50 is at most 100 nM at CDK4/Cyclin D1, 100 to 1000 nM in the experiment on OVCAR3 p-RB and at most 100 nM on CDK2/Cyclin E2.
With `Cc1ncc(-c2nc(NC3CCN(S(=O)(=O)c4cnn(C)c4)CC3)ncc2C(F)(F)F)s1` [Example 60, N-[1-(1-Methylpyrazol-4-yl)sulfonylpiperidin-4-yl]-4-(2-methyl-1,3-thiazol-5-yl)-5-(trifluoromethyl)pyrimidin-2-amine], the values for the IC50 at CDK4/Cyclin D1, with OVCAR3 p-RB and on CDK2/Cyclin E2 were at most 100 nM, 100 to 1000 nM and at most 100 nM, respectively.
Take `Cc1ncc(-c2nc(NC3CCN(S(=O)(=O)CCO)CC3)ncc2C(F)(F)F)s1` [Example 61, 2-[4-[[4-(2-methyl-1,3-thiazol-5-yl)-5-(trifluoromethyl)pyrimidin-2-yl]amino]piperidin-1-yl]sulfonylethanol]: the results for the IC50 on CDK4/Cyclin D1, with OVCAR3 p-RB and on CDK2/Cyclin E2 were at most 100 nM, 100 to 1000 nM and at most 100 nM, respectively.
Regarding `CN(C)c1ncc(-c2nc(NC3CCN(S(C)(=O)=O)CC3)ncc2C(F)F)s1` [Example 62, 5-[5-(Difluoromethyl)-2-[(1-methylsulfonylpiperidin-4-yl)amino]pyrimidin-4-yl]-N,N-dimethyl-1,3-thiazol-2-amine], the IC50 was 100 to 1000 nM at CDK4/Cyclin D1, above 1000 nM in the experiment with OVCAR3 p-RB and 100 to 1000 nM at CDK2/Cyclin E2.
With `CS(=O)(=O)N1CCC(Nc2ncc(C(F)(F)F)c(-c3cnc(CN)s3)n2)CC1` [Example 64, 4-[2-(Aminomethyl)-1,3-thiazol-5-yl]-N-(1-methylsulfonylpiperidin-4-yl)-5-(trifluoromethyl)pyrimidin-2-amine], the results for the half-inhibitory concentration (IC50) at CDK4/Cyclin D1, in the experiment with OVCAR3 p-RB and at CDK2/Cyclin E2 were 100 to 1000 nM, above 1000 nM and at most 100 nM, respectively.
Taken in the same sequence, the figures for `CN(C)Cc1ncc(-c2nc(NC3CCN(S(C)(=O)=O)CC3)ncc2C(F)(F)F)s1` [Example 65, 4-[2-[(Dimethylamino)methyl]-1,3-thiazol-5-yl]-N-(1-methylsulfonylpiperidin-4-yl)-5-(trifluoromethyl)pyrimidin-2-amine] were 100 to 1000 nM, above 1000 nM and at most 100 nM.
In the same order, the values of `Cn1cc(S(=O)(=O)N2CCC(Nc3ncc(C(F)(F)F)c(-c4cnc(CC(C)(C)O)s4)n3)CC2)cn1` [Example 67, 2-Methyl-1-(5-(2-((1-((1-methyl-1H-pyrazol-4-yl)sulfonyl)piperidin-4-yl)amino)-5-(trifluoromethyl)pyrimidin-4-yl)thiazol-2-yl)propan-2-ol] are at most 100 nM, at most 100 nM and at most 100 nM.
Taken in the same sequence, the figures for `CC(C)(O)Cc1ncc(-c2nc(NC3CCN(S(C)(=O)=O)CC3)ncc2C(F)(F)F)s1` [Example 68, 2-methyl-1-(5-(2-((1-(methylsulfonyl)piperidin-4-yl)amino)-5-(trifluoromethyl)pyrimidin-4-yl)thiazol-2-yl) propan-2-ol] were at most 100 nM, at most 100 nM and at most 100 nM.
Regarding `CC(C)(O)Cc1ncc(-c2nc(N[C@H]3CCN(S(C)(=O)=O)C[C@H]3F)ncc2C(F)(F)F)s1` [Example 69, 1-(5-(2-(((3R,4S)-3-fluoro-1-(methylsulfonyl)piperidin-4-yl)amino)-5-(trifluoromethyl)pyrimidin-4-yl)thiazol-2-yl)-2-methylpropan-2-ol], the IC50 on CDK4/Cyclin D1, with OVCAR3 p-RB and at CDK2/Cyclin E2 was at most 100 nM each time.
Take `Cn1cnc(S(=O)(=O)N2CCC(Nc3ncc(C(F)(F)F)c(-c4cnc(CC(C)(C)O)s4)n3)CC2)c1` [Example 70, 2-methyl-1-(5-(2-((1-((1-methyl-1H-imidazol-4-yl)sulfonyl)piperidin-4-yl)amino)-5-(trifluoromethyl)pyrimidin-4-yl)thiazol-2-yl)propan-2-ol]: the IC50 at CDK4/Cyclin D1, in the experiment with OVCAR3 p-RB and at CDK2/Cyclin E2 was at most 100 nM throughout.
As for `C[C@@H]1CN(S(=O)(=O)c2cnn(C)c2)CC[C@@H]1Nc1ncc(C(F)(F)F)c(-c2cnc(CC(C)(C)O)s2)n1` [Example 71, 2-methyl-1-(5-(2-(((3R,4S)-3-methyl-1-((1-methyl-1H-pyrazol-4-yl)sulfonyl)piperidin-4-yl)amino)-5-(trifluoromethyl)pyrimidin-4-yl)thiazol-2-yl)propan-2-ol], the IC50 on CDK4/Cyclin D1 is 100 to 1000 nM; in the experiment on OVCAR3 p-RB it was 100 to 1000 nM; on CDK2/Cyclin E2, at most 100 nM.

Values taken from patent US20240018136A1, “CDK Inhibitors And Their Use As Pharmaceuticals” (Prelude Therapeutics, Incorporated, priority 2022, published 2024).
